In patent US20100234463A1, “Method for Identifying Modulators of Gamma Secretase or Notch” (priority 2005, published 2010):
pIC50: −log10 of the molar value.

Experiments:
γ-secretase = conditions: reported; cited from earlier work
Notch = assay: NICD nuclear translocation high content screening assay (ArrayScan); type: cell-based, human
Protocol: (§1) Human embryonic kidney (HEK) 293 cells stably over-expressing β-amyloid precursor protein (βAPP695) and c-myc-tagged NotchΔE (M1727V) have been previously described (Beher, D. et al., J. Biol Chem. 276: 45394-45402, (2001)). Cells were routinely maintained in Dulbecco's modified Eagle's medium (DMEM) supplemented with 10% (v/v) fetal calf serum (FCS, Invitrogen™, Carlsbad, Calif.), 1 μg/ml puromycin (Sigma-Aldrich, St. Louis, Mo.) to maintain βAPP expression and 100 μg/ml zeocin (Life Technologies, Inc., Rockville, Md.) to select for NotchΔE expression. Cells were passaged on a weekly basis using 1:10 split ratio.
(§2) On the day of the assay, media was removed and cells washed with phosphate-buffered saline (PBS, Sigma-Aldrich, St. Louis, Mo.), followed by incubation with 1.5 ml Accutase (PAA Laboratories GmbH, Pasching, Austria) at 37° C. for 10 minutes to detach cells. DMEM supplemented with 10% (v/v) FCS was added and the cell suspension centrifuged for 5 minutes at 1120 prm. […] A further 9 ml DMEM supplemented with 0.4% (v/v) FCS was added and cells counted.
(§3) Cells were plated in poly-d-lysine coated 96-well plates (Becton Dickinson, Fullerton, Calif.) at 10,000 cells/well in DMEM supplemented with 0.4% (v/v) FCS (Invitrogen™, Carlsbad, Calif.). […] Cell conditioned media was removed for quantification of Aβ peptides and the cell monolayer fixed by incubating with 3.7% (v/v) formaldehyde (Sigma-Aldrich, St. Louis, Mo.) in PBS at room temperature for fifteen minutes.
Cells were washed with PBS (three times, five minutes each) and incubated with 0.1% Triton-X in PBS for 90 seconds at room temperature. […] After washing with PBS (three times, five minutes each), the plates were sealed and transferred to a Cellomics™ ArrayScan® 4.0 (Cellomics Inc, Pittsburgh, Pa.) for quantification of NICD translocation.
Automated image capture and quantification of NICD nuclear translocation was performed using a Cellomics™ ArrayScan® 4.0 and the Cytoplasm to Nucleus Translocation BioApplication software (Cellomics, Pittsburgh, Pa.). […]

Aβ40 = assay: Quantification of Aβ40 in cell-conditioned media by ECL; type: cell-based, human; conditions: 24 hours
Protocol: as §1, §2, §3
Aβ peptides secreted into the media were quantified using an electrochemiluminescence (ECL) assay in a 96-well plate format (Sector HTS™ analyzer, Meso Scale Discovery® a division of Meso Scale Diagnostics™, LLC (MSD™), Gaithersburg, Md.). […] Plates were washed with PBS (three times, five minutes each) and media replaced with 150 μl Read buffer S (Meso Scale Discovery®) prior to detecting Aβ40 and Aβ42 using the Sector HTS™ Analyzer. […]
Mean values for vehicle control and compound C treated cells were calculated. […] Percent control values were calculated using the following formula: […]

Aβ42 [1] = assay: Quantification of Aβ42 in cell-conditioned media by ECL; type: cell-based, human; conditions: 24 hours
Protocol: as §1
as §2, with “cells.” for “cells. DMEM supplemented with 10% (v/v) FCS was added and the cell suspension centrifuged for 5 minutes at 1120 prm.”
as §3, with “minutes. […]” for “minutes.”

Aβ42 [2] = conditions: cited from earlier work

Row | pIC50 (Aβ42 [1]; HEK293 βAPP695 NotchΔE cells) | pIC50 (Notch; NICD nuclear translocation, 24 hours) | pIC50 (Aβ40; HEK293 βAPP695 NotchΔE cells) | SMILES | potency for inhibition of Aβ40 versus Aβ42 peptides (γ-secretase) | inhibition of NICD nuclear translocation over time (Notch; 10 μM, up to twenty four hours) | effect on Aβ40 levels (Aβ40; increasing concentrations) | effect on Aβ42 peptide levels (Aβ42 [1]; increasing concentrations) | reported effect on Aβ42 (Aβ42 [2]) | concentrations with no effect on NICD nuclear translocation (Notch; 24 hours) | concentrations at which Aβ40 peptide generation was inhibited (Aβ40)
1 | – | – | – | CC(C)C[C@H](NC(=O)[C@H](Cc1ccccc1)C[C@@H](O)[C@H](Cc1ccccc1)NC(=O)OC(C)(C)C)C(=O)N[C@@H](Cc1ccccc1)C(N)=O [C] | equivalent potency | Time-dependant inhibition | declined | – | – | – | –
2 | 5.03 | < 3.00 | < 3.00 | C[C@@H](C(=O)O)c1ccc(-c2ccccc2)c(F)c1 [Compound F] | – | – | – | selectively reduced | preferentially inhibit Aβ42 | up to 1000 μM | ≥ 30 µM
